Results published in patent publication US12350270B2, “Antimalarial agents” (Merck Sharp & Dohme LLC, priority 2019, dated 2025).

Test system: parasites (ring stage, in human red blood cell culture)
Experiment: Parasite LDH growth assay (antiparasite potency, Parasite Assay)
Type: cell-based, Plasmodium falciparum
Conditions: Plasmodium falciparum, Erythrocyte, 72 h, 0.7% rings, 2% haematocrit, 72 hours at 37° C., LDH readout of parasite growth
Outline: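 Ring-stage parasites at 0.7% parasitemia and 2% haematocrit, in RPMI-Hepes/bicarbonate with 5% heat-inactivated human serum and 0.5% albumax, were added to compound-containing medium. Cultures grew 72 h at 37 °C in gassed humidified boxes. Plates were then frozen overnight at −80 °C, thawed 4 h, and growth was measured by LDH assay.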

Row | Structure (SMILES) | EC50
1 | CC[C@]1(C)CC(=O)N(C2c3cc(C(=O)N[C@@H]4c5ccccc5C[C@H]4O)ccc3OCC2OC)C(=N)N1 (stereo partly drawn) [Example 145, 4-[(4R)-4-ethyl-2-imino-4-methyl-6-oxo-hexahydropyrimidin-1-yl]-N-[(1R,2R)-2-hydroxyindan-1-yl]-3-methoxy-chromane-6-carboxamide] | 40.8 nM
2 | COCC1(C)Oc2ccc(C(=O)N[C@@H]3c4ccccc4C[C@H]3O)cc2C1N1C(=N)NC(C)(C)CC1=O (stereo partly drawn) [Example 146, N-[(1R,2R)-2-hydroxyindan-1-yl]-3-(2-imino-4,4-dimethyl-6-oxo-hexahydropyrimidin-1-yl)-2-(methoxymethyl)-2-methyl-3H-benzofuran-5-carboxamide] | 35.5 nM
3 | CCC1(CC)CC(=O)N([C@@H]2CCOc3ccc(C(=O)N[C@H]4c5cc(F)ccc5C[C@@H]4O)cc32)C(=N)N1 [Example 147, (4R)-4-(4,4-diethyl-2-imino-6-oxo-hexahydropyrimidin-1-yl)-N-[(1S,2S)-6-fluoro-2-hydroxy-indan-1-yl]chromane-6-carboxamide] | 160 nM
4 | CCC1(CC)CC(=O)N([C@@H]2CCOc3ccc(C(=O)N[C@@H]4c5cc(F)ccc5C[C@H]4O)cc32)C(=N)N1 [Example 148, (4R)-4-(4,4-diethyl-2-imino-6-oxo-hexahydropyrimidin-1-yl)-N-[(1R,2R)-6-fluoro-2-hydroxy-indan-1-yl]chromane-6-carboxamide] | 2.7 nM
5 | CC1(C)CC(=O)N([C@@H]2CCc3ccc(C(=O)N[C@@H]4c5cc(F)ccc5OC(C)(C)[C@H]4O)cc32)C(=N)N1 [Example 149, (3R)-N-[(3S,4R)-6-fluoro-3-hydroxy-2,2-dimethyl-chroman-4-yl]-3-(2-imino-4,4-dimethyl-6-oxo-hexahydropyrimidin-1-yl)indane-5-carboxamide] | 1.1 nM
6 | CCC1(CC)CC(=O)N([C@@H]2CCOc3ccc(C(=O)NC(CO)c4ccccc4OC)cc32)C(=N)N1 (stereo partly drawn) [Example 150, (4R)-4-(4,4-diethyl-2-imino-6-oxo-hexahydropyrimidin-1-yl)-N-[2-hydroxy-1-(2-methoxyphenyl)ethyl]chromane-6-carboxamide] | 49 nM
7 | CC[C@]1(C)CC(=O)N([C@@H]2CCOc3ccc(C(=O)NC4c5cc(F)ccc5OCC4O)cc32)C(=N)N1 (stereo partly drawn) [Example 151, (4R)-4-[(4R)-4-ethyl-2-imino-4-methyl-6-oxo-hexahydropyrimidin-1-yl]-N-(6-fluoro-3-hydroxy-chroman-4-yl)chromane-6-carboxamide] | 5.4 nM
8 | CCC1(CC)CC(=O)N([C@@H]2CCOc3ccc(C(=O)NC4c5ccccc5CC4(F)F)cc32)C(=N)N1 (stereo partly drawn) [Example 152, (4R)-4-(4,4-diethyl-2-imino-6-oxo-hexahydropyrimidin-1-yl)-N-(2,2-difluoroindan-1-yl)chromane-6-carboxamide] | 7.7 nM
9 | CC1(C)CC(=O)N([C@@H]2CCOc3ccc(C(=O)N[C@@H]4c5cc(Cl)ccc5OC[C@H]4O)cc32)C(=N)N1 [Example 153, (4R)-N-[(3S,4R)-6-chloro-3-hydroxy-chroman-4-yl]-4-(2-imino-4,4-dimethyl-6-oxo-hexahydropyrimidin-1-yl)chromane-6-carboxamide] | 11.5 nM
10 | CCC1(CC)CC(=O)N([C@@H]2CCOc3ccc(C(=O)N[C@@H]4c5ccccc5C5(CC5)[C@H]4O)cc32)C(=N)N1 [Example 154, (4R)-4-(4,4-diethyl-2-imino-6-oxo-hexahydropyrimidin-1-yl)-N-[(1′R,2′R)-2′-hydroxyspiro[cyclopropane-1,3′-indane]-1′-yl]chromane-6-carboxamide] | 0.7 nM
11 | CCC1(CC)CC(=O)N([C@@H]2CCOc3ccc(C(=O)N[C@H]4c5ccccc5C5(CC5)[C@@H]4O)cc32)C(=N)N1 [Example 155, (4R)-4-(4,4-diethyl-2-imino-6-oxo-hexahydropyrimidin-1-yl)-N-[(1′S,2′S)-2′-hydroxyspiro[cyclopropane-1,3′-indane]-1′-yl]chromane-6-carboxamide] | 82.5 nM
12 | CCC1(CC)CC(=O)N([C@@H]2CCCc3ccc(C(=O)N[C@H]4CC(C)(C)Oc5ccccc54)cc32)C(=N)N1 [Example 156, (4R)-4-(4,4-diethyl-2-imino-6-oxo-hexahydropyrimidin-1-yl)-N-[(4S)-2,2-dimethylchroman-4-yl]tetralin-6-carboxamide] | 1.1 nM
13 | CCC1(CC)CC(=O)N([C@@H]2C[C@@H](OC)c3ccc(C(=O)N[C@@H]4c5ccccc5C[C@@]4(C)O)cc32)C(=N)N1 [Example 157, (1R,3R)-3-(4,4-diethyl-2-imino-6-oxo-hexahydropyrimidin-1-yl)-N-[(1R,2R)-2-hydroxy-2-methyl-indan-1-yl]-1-methoxy-indane-5-carboxamide] | 19.9 nM
14 | CCC1(CC)CC(=O)N([C@@H]2C[C@H](OC)c3ccc(C(=O)N[C@@H]4c5ccccc5C[C@@]4(C)O)cc32)C(=N)N1 [Example 158, (1S,3R)-3-(4,4-diethyl-2-imino-6-oxo-hexahydropyrimidin-1-yl)-N-[(1R,2R)-2-hydroxy-2-methyl-indan-1-yl]-1-methoxy-indane-5-carboxamide] | 0.9 nM
15 | CCC1(CC)CC(=O)N([C@@H]2CCc3ccc(C(=O)N[C@@H]4c5ccccc5OC(C)(C)[C@H]4O)cc32)C(=N)N1 [Example 159, (3R)-3-(4,4-diethyl-2-imino-6-oxo-hexahydropyrimidin-1-yl)-N-[(3S,4R)-3-hydroxy-2,2-dimethyl-chroman-4-yl]indane-5-carboxamide] | 0.5 nM
16 | CC1(C)CC(=O)N([C@@H]2CC(C)(C)c3ccc(C(=O)N[C@@H]4c5ccccc5OC(C)(C)[C@H]4O)cc32)C(=N)N1 [Example 160, (3R)-N-[(3S,4R)-3-hydroxy-2,2-dimethyl-chroman-4-yl]-3-(2-imino-4,4-dimethyl-6-oxo-hexahydropyrimidin-1-yl)-1,1-dimethyl-indane-5-carboxamide] | 8.3 nM
17 | CCC1(CC)CC(=O)N(C2CCCc3ccc(C(=O)N[C@@H]4c5ccccc5OC[C@@]4(C)O)cc32)C(=N)N1 (stereo partly drawn) [Example 161, 8-(4,4-diethyl-2-imino-6-oxotetrahydropyrimidin-1(2H)-yl)-N-((3S,4R)-3-hydroxy-3-methylchroman-4-yl)-5,6,7,8-tetrahydronaphthalene-2-carboxamide] | 0.8 nM
18 | CC1(C)CC(=O)N([C@H]2c3cc(C(=O)N[C@@H]4c5ccccc5OC(C)(C)[C@H]4O)ccc3CC2(C)C)C(=N)N1 [Example 162, (3R)-N-[(3S,4R)-3-hydroxy-2,2-dimethyl-chroman-4-yl]-3-(2-imino-4,4-dimethyl-6-oxo-hexahydropyrimidin-1-yl)-2,2-dimethyl-indane-5-carboxamide] | 7.5 nM
19 | CCC1(CC)CC(=O)N([C@H]2c3cc(C(=O)N[C@@H]4c5ccccc5C[C@@]4(C)O)ccc3OC2(C)C)C(=N)N1 [Example 163, (3S)-3-(4,4-diethyl-2-imino-6-oxo-hexahydropyrimidin-1-yl)-N-[(1R,2R)-2-hydroxy-2-methyl-indan-1-yl]-2,2-dimethyl-3H-benzofuran-5-carboxamide] | 8.4 nM
20 | CCC1(CC)CC(=O)N([C@@H]2C[C@@H](C)Oc3ccc(C(=O)N[C@@H]4c5ccccc5C[C@@]4(C)O)cc32)C(=N)N1 [Example 164, (2R,4R)-4-(4,4-diethyl-2-imino-6-oxo-hexahydropyrimidin-1-yl)-N-[(1R,2R)-2-hydroxy-2-methyl-indan-1-yl]-2-methyl-chromane-6-carboxamide] | 2.4 nM
21 | CCC1(CC)CC(=O)N([C@H]2c3cc(C(=O)N[C@@H]4c5ccccc5C[C@H]4O)ccc3CC[C@@H]2OC)C(=N)N1 [Example 165, (3S,4S)-4-(4,4-diethyl-2-imino-6-oxo-hexahydropyrimidin-1-yl)-N-[(1R,2R)-2-hydroxyindan-1-yl]-3-methoxy-tetralin-6-carboxamide] | 3.4 nM
22 | CC[C@]1(C)CC(=O)N([C@@H]2c3cc(C(=O)N[C@@H]4c5ccccc5OC(C)(C)[C@H]4O)ccc3C[C@@H]2C)C(=N)N1 [Example 166, (2S,3S)-3-[(4R)-4-ethyl-2-imino-4-methyl-6-oxo-hexahydropyrimidin-1-yl]-N-[(3S,4R)-3-hydroxy-2,2-dimethyl-chroman-4-yl]-2-methyl-indane-5-carboxamide] | 154 nM
23 | CC[C@]1(C)CC(=O)N([C@@H]2c3cc(C(=O)N[C@@H]4c5ccccc5OC(C)(C)[C@H]4O)ccc3C[C@H]2C)C(=N)N1 [Example 167, (2R,3S)-3-[(4R)-4-ethyl-2-imino-4-methyl-6-oxo-hexahydropyrimidin-1-yl]-N-[(3S,4R)-3-hydroxy-2,2-dimethyl-chroman-4-yl]-2-methyl-indane-5-carboxamide] | 250 nM
24 | CC[C@]1(C)CC(=O)N([C@H]2c3cc(C(=O)N[C@@H]4c5ccccc5OC(C)(C)[C@H]4O)ccc3C[C@H]2C)C(=N)N1 [Example 168, (2R,3R)-3-[(4R)-4-ethyl-2-imino-4-methyl-6-oxo-hexahydropyrimidin-1-yl]-N-[(3S,4R)-3-hydroxy-2,2-dimethyl-chroman-4-yl]-2-methyl-indane-5-carboxamide] | 0.4 nM
25 | CC[C@]1(C)CC(=O)N([C@H]2c3cc(C(=O)N[C@@H]4c5ccccc5OC(C)(C)[C@H]4O)ccc3C[C@@H]2C)C(=N)N1 [Example 169, (2S,3R)-3-[(4R)-4-ethyl-2-imino-4-methyl-6-oxo-hexahydropyrimidin-1-yl]-N-[(3S,4R)-3-hydroxy-2,2-dimethyl-chroman-4-yl]-2-methyl-indane-5-carboxamide] | 0.3 nM
26 | CC[C@]1(C)CC(=O)N([C@H]2C[C@H](C)c3ccc(C(=O)N[C@@H]4c5ccccc5OC(C)(C)[C@H]4O)cc32)C(=N)N1 [Example 170, (1S,3S)-3-[(4R)-4-ethyl-2-imino-4-methyl-6-oxo-hexahydropyrimidin-1-yl]-N-[(3S,4R)-3-hydroxy-2,2-dimethyl-chroman-4-yl]-1-methyl-indane-5-carboxamide] | 184 nM
